Source: patent US20230312576A1, “4-(7H-PYRROLO[2,3-D]PYRIMIDIN-4-YL)-3,6-DIHYDROPYRIDINE-1-(2H)-CARBOXAMIDE DERIVATIVES AS LIMK AND/OR ROCK KINASES INHIBITORS FOR USE IN THE TREATMENT OF CANCER” (CENTRE NATIONAL DE LA RECHERCHE SCIENTIFIQUE, priority 2020, published 2023)
pKi: −log10 of the molar value. Read-outs that look alike come from different tables or passages of the source.

Columns and labels:
[1] = biological target: ROCK2 (Homo sapiens (Human), UniProt O75116); experiment: Z'Lyte assay, ROCK2 inhibition at a single concentration; type: biochemical
Chain of ROCK2 (O75116 whole entry): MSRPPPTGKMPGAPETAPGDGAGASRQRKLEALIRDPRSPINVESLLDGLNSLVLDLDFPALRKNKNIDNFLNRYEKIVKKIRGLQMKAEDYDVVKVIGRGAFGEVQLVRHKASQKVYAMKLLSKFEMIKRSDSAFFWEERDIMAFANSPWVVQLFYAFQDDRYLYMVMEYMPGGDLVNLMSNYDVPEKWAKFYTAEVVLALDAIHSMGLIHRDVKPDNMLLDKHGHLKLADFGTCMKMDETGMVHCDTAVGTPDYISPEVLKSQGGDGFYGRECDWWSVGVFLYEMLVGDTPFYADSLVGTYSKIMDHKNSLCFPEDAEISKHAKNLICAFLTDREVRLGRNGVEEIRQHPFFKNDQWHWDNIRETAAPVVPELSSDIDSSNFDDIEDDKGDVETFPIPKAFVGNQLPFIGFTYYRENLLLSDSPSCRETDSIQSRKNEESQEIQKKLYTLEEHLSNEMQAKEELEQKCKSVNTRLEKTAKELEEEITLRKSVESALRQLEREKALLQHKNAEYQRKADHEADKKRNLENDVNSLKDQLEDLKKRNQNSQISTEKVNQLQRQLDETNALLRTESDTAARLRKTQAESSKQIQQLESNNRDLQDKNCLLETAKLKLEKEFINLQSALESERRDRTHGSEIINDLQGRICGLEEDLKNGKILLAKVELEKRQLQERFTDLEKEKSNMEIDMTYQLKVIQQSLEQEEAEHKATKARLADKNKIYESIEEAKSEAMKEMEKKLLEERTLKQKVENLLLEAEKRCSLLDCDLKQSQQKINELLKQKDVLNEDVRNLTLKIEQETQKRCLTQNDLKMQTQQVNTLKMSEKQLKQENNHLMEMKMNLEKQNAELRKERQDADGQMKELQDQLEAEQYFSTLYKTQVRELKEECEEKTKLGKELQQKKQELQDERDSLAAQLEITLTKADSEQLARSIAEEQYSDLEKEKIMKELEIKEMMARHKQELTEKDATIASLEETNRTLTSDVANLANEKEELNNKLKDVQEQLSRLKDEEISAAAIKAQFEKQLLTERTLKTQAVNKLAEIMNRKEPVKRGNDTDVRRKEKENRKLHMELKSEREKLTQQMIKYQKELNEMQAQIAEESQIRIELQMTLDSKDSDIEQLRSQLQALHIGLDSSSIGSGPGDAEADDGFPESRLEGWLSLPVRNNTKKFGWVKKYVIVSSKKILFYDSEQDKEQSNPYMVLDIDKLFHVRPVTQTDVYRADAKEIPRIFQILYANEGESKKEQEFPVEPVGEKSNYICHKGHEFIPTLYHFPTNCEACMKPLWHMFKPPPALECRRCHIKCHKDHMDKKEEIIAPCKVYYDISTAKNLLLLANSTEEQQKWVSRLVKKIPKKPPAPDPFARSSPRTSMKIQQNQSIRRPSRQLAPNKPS

[2] = system: cofilin phosphorylation, HeLa cells; experiment: Cofilin phosphorylation by Western Blot (anti-phospho-Ser3-cofilin) in HeLa cells; type: cell-based; conditions: Homo sapiens, HeLa, 2 h
[3] = biological target: ROCK1 (Homo sapiens (Human), UniProt Q13464); experiment: Z'Lyte assay, ROCK1 inhibition at a single concentration; type: biochemical
Chain of ROCK1 (Q13464 whole entry): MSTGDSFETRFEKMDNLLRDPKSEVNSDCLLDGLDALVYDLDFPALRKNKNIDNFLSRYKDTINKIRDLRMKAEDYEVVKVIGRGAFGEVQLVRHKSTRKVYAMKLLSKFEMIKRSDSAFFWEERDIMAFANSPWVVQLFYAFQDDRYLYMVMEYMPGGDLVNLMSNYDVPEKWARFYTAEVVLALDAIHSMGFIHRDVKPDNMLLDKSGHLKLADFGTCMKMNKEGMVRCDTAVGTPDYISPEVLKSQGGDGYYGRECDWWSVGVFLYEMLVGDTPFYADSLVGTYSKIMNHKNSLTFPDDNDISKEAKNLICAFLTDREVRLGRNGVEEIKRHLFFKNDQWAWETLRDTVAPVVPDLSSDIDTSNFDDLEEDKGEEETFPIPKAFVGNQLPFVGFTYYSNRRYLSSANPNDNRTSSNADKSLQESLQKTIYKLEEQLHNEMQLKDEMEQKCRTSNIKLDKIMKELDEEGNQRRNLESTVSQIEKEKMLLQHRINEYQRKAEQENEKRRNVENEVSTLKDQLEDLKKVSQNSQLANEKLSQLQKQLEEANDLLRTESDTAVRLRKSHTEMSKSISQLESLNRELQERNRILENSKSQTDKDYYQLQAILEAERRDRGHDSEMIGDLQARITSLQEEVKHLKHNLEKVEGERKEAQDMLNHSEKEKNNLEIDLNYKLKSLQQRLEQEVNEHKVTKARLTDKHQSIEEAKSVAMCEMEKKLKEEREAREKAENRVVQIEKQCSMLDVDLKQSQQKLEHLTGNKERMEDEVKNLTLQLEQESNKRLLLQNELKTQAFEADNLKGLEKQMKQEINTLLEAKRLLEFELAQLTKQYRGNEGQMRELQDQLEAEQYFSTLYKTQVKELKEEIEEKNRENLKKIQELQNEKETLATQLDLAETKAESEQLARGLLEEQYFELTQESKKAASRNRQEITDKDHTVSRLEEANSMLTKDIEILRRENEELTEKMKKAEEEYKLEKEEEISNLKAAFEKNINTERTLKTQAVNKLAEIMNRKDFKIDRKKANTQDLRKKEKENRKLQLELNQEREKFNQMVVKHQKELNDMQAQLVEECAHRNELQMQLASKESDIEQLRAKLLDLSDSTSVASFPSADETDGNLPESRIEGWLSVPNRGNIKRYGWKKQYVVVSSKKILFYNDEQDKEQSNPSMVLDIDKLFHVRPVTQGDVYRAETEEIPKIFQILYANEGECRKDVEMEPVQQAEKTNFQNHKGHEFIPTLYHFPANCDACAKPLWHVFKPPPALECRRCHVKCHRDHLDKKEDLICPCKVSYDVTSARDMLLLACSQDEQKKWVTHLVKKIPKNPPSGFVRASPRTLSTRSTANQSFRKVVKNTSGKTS

[4] = biological target: LIMK2 (Homo sapiens (Human), UniProt P53671); experiment: Lanthascreen Eu binding assay (TR-FRET), inhibition of LIMK2
Chain of LIMK2 (P53671 whole entry): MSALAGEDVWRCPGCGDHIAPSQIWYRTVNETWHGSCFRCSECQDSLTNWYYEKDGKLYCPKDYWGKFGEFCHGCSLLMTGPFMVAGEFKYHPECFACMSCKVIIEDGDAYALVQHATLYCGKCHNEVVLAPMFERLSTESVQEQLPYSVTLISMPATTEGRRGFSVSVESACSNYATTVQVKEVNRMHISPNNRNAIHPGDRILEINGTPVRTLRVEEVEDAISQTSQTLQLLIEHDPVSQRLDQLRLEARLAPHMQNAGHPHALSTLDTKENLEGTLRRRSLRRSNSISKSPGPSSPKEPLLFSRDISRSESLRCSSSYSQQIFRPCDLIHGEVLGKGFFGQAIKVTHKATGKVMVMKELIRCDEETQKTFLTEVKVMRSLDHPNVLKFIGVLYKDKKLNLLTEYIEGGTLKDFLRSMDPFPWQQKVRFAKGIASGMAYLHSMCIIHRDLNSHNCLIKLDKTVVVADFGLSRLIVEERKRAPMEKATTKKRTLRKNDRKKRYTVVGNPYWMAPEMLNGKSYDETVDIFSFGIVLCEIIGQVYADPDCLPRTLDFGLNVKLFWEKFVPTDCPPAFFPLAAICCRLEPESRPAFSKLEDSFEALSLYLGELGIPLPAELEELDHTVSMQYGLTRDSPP

[5] = biological target: LIMK1 (Homo sapiens (Human), UniProt P53667); experiment: Lanthascreen Eu binding assay (TR-FRET), inhibition of LIMK1
Chain of LIMK1 (P53667 whole entry): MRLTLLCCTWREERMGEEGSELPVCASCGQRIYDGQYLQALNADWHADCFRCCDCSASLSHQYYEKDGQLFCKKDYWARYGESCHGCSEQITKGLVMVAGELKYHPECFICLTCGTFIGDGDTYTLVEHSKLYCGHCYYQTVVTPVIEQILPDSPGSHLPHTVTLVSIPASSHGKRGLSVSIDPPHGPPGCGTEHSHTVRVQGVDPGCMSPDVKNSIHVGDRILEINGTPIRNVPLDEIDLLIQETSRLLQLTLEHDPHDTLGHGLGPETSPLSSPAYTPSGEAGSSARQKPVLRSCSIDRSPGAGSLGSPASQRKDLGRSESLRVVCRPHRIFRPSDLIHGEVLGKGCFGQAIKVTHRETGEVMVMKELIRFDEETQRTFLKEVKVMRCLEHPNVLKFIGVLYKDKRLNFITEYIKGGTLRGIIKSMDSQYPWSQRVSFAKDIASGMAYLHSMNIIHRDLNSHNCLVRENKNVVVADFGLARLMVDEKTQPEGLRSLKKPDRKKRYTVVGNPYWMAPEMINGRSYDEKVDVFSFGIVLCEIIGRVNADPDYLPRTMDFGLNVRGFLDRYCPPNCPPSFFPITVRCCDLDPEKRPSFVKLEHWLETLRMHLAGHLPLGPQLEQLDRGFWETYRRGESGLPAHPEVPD

[6] = read-out: % inhibition (ROCK2) 1 uM, 1 uM
[7] = read-out: % inhibition (ROCK1) 1 uM, 1 uM

Row | Compound | inhibition at 1 µM [1, 6] | inhibition at 1 µM [3, 7] | pKi ([4]; Lanthascreen Eu binding assay) | pKi ([5]; Lanthascreen Eu binding assay) | other results
1 | Cc1c[nH]c2ncnc(C3=CCN(C(=O)Nc4ccc5ccccc5c4)CC3)c12 [Compound 13, 4-(5-Methyl-7H-pyrrolo[2,3-d]pyrimidin-4-yl)-N-(naphthalen-2-yl)-3,6-dihydropyridine-1(2H)-carboxamide] | 56% | 73% | – | – | inhibition at 25 µM ([2]; read-out: % inhibition Cofilin phosphorylation HeLa cells treated 2 h with 25 uM of inhibitor): 84.2%; inhibition at 25 µM ([2]; read-out: % inhibition of cofilin phosphorylation in HeLa cells (treatment 2 h, at 25 μM)): 84.2%
2 | CC(C)(C)OC(=O)NCCCOc1cccc(-c2cccc(NC(=O)N3CC=C(c4ncnc5[nH]cc(C6CC6)c45)CC3)c2)c1 [Compound 165, tert-butyl N-[3-[3-[3-[[4-(5-cyclopropyl-7H-pyrrolo[2,3-d]pyrimidin-4-yl)-3,6-dihydro-2H-pyridine-1-carbonyl]amino]phenyl]phenoxy]propyl]carbamate] | 7% | -2% | 7.24 | 6.77 | –
3 | Cc1c[nH]c2ncnc(C3=CCN(C(=O)Nc4cccc(-c5cccc(OCCCNC(=O)OC(C)(C)C)c5)c4)CC3)c12 [Compound 166, tert-butyl N-[3-[3-[3-[[4-(5-methyl-7H-pyrrolo[2,3-d]pyrimidin-4-yl)-3,6-di hydro-2H-pyridine-1-carbonyl]amino]phenyl]phenoxy]propyl]carbamate] | 2% | 12% | 6.91 | 7.02 | –
4 | CC1=CC(C)=[N+]2C1=Cc1ccc(CCC(=O)NCCCOc3cccc(-c4cccc(NC(=O)N5CC=C(c6ncnc7[nH]c8c(c67)CCC8)CC5)c4)c3)n1[B-]2(F)F [Compound 167, N-(3′-(3-(3-(5,5-Difluoro-7,9-dimethyl-5H-dipyrrolo[1,2-c:2′,1′-f][1,3,2]diazaborinin-3-yl)propanamido)propoxy)-[1,1′-biphenyl]-3-yl)-4-(5,6,7,8-tetrahydrocyclopenta[4,5]pyrrolo[2,3-d]pyrimidin-4-yl)-3,6-dihydropyridine-1(2H)-carboxamide] | – | – | – | – | % inhibition (ROCK2) 1 uM [1]: 6%; pKi [4]: 6.95; pKi [5]: 6.95; % inhibition (ROCK1) 1 uM [3]: −4%
5 | Cc1c[nH]c2ncnc(C3=CCN(C(=O)Nc4cccc(C(=O)N5CCN(S(C)(=O)=O)CC5)c4)CC3)c12 [Compound 172, 4-(5-methyl-7H-pyrrolo[2,3-d]pyrimidin-4-yl)-N-[3-(4-methylsulfonylpiperazine-1-carbonyl)phenyl]-3,6-dihydro-2H-pyridine-1-carboxamide] | 78% | 88% | 5.60 | 5.97 | –
6 | Cc1c[nH]c2ncnc(C3=CCN(C(=O)Nc4cccc(Oc5cccc(N(C)C)c5)c4)CC3)c12 [Compound 177, N-(3-(3-(dimethylamino)phenoxy)phenyl)-4-(5-methyl-7H-pyrrolo[2,3-d]pyrimidin-4-yl)-3,6-dihydropyridine-1(2H)-carboxamide] | 30% | 49% | 6.82 | 7.47 | –
7 | Cc1c[nH]c2ncnc(C3=CCN(C(=O)Nc4cccc(OCCN5CCN(C)CC5)c4)CC3)c12 [Compound 184, 4-(5-methyl-7H-pyrrolo[2,3-d]pyrimidin-4-yl)-N-(3-(2-(4-methylpiperazin-1-yl)ethoxy)phenyl)-3,6-dihydropyridine-1(2H)-carboxamide] | 78% | 87% | 5.83 | 6.15 | –
8 | Cc1c[nH]c2ncnc(C3=CCN(C(=O)Nc4cccc(OCCCN5CCN(C)CC5)c4)CC3)c12 [Compound 185, 4-(5-methyl-7H-pyrrolo[2,3-d]pyrimidin-4-yl)-N-(3-(3-(4-methylpiperazin-1-yl)propoxy)phenyl)-3,6-dihydropyridine-1(2H)-carboxamide] | 97% | 99% | 6.06 | 6.17 | –
9 | Cc1c[nH]c2ncnc(C3=CCN(C(=O)Nc4cccc(OCCCNC(=O)OC(C)(C)C)c4)CC3)c12 [Compound 188, tert-Butyl (3-(3-(4-(5-methyl-7H-pyrrolo[2,3-d]pyrimidin-4-yl)-1,2,3,6-tetrahydropyridine-1-carboxamido)phenoxy)propyl)carbamate] | 33% | 48% | 7.29 | 7.19 | –
10 | Cc1c[nH]c2ncnc(C3=CCN(C(=O)Nc4cccc(OCC5CCN(C)CC5)c4)CC3)c12 [Compound 195, 4-(5-methyl-7H-pyrrolo[2,3-d]pyrimidin-4-yl)-N-(3-((1-methylpiperidin-4-yl)methoxy)phenyl)-3,6-dihydropyridine-1(2H)-carboxamide] | 93% | 99% | 6.72 | 6.76 | –
11 | CNC(=O)c1cc(Oc2ccc(NC(=O)N3CC=C(c4ncnc5[nH]cc(C)c45)CC3)cc2)ccn1 [Compound 196, N-methyl-4-(4-(4-(5-methyl-7H-pyrrolo[2,3-d]pyrimidin-4-yl)-1,2,3,6-tetrahydropyridine-1-carboxamido)phenoxy)picolinamide] | 12% | 21% | 7.31 | 6.72 | –
12 | CNC(=O)c1cc(Oc2cccc(NC(=O)N3CC=C(c4ncnc5[nH]cc(C)c45)CC3)c2)ccn1 [Compound 198, N-methyl-4-(3-(4-(5-methyl-7H-pyrrolo[2,3-d]pyrimidin-4-yl)-1,2,3,6-tetrahydropyridine-1-carboxamido)phenoxy)picolinamide] | 65% | 79% | 8.54 | 8.51 | –
13 | Cc1c[nH]c2ncnc(C3=CCN(C(=O)Nc4cccc(Oc5cccc(F)c5)c4)CC3)c12 [Compound 200, N-(3-(3-fluorophenoxy)phenyl)-4-(5-methyl-7H-pyrrolo[2,3-d]pyrimidin-4-yl)-3,6-dihydropyridine-1(2H)-carboxamide] | 13% | 35% | 8.01 | 7.34 | –
14 | Cc1c[nH]c2ncnc(C3=CCN(C(=O)Nc4cccc(Oc5ccc(F)cc5)c4)CC3)c12 [Compound 202, N-(3-(4-fluorophenoxy)phenyl)-4-(5-methyl-7H-pyrrolo[2,3-d]pyrimidin-4-yl)-3,6-dihydropyridine-1(2H)-carboxamide] | 15% | 26% | 7.16 | 7.15 | –
15 | Cc1c[nH]c2ncnc(C3=CCN(C(=O)Nc4cccc(Oc5cccc(Cl)c5)c4)CC3)c12 [Compound 204, N-(3-(3-chlorophenoxy)phenyl)-4-(5-methyl-7H-pyrrolo[2,3-d]pyrimidin-4-yl)-3,6-dihydropyridine-1(2H)-carboxamide] | 46% | 71% | 7.81 | 7.30 | –
16 | Cc1c[nH]c2ncnc(C3=CCN(C(=O)Nc4cccc(Oc5ccc(Br)cc5Cl)c4)CC3)c12 [Compound 206, N-(3-(4-bromo-2-chlorophenoxy)phenyl)-4-(5-methyl-7H-pyrrolo[2,3-d]pyrimidin-4-yl)-3,6-dihydropyridine-1(2H)-carboxamide] | 3% | 13% | 6.17 | 6.38 | –
17 | Cc1c[nH]c2ncnc(C3=CCN(C(=O)Nc4cccc(Oc5cccnc5)c4)CC3)c12 [Compound 208, 4-(5-methyl-7H-pyrrolo[2,3-d]pyrimidin-4-yl)-N-(3-(pyridin-3-yloxy)phenyl)-3,6-dihydropyridine-1(2H)-carboxamide] | 72% | 91% | 8.12 | 7.43 | –
18 | Cc1c[nH]c2ncnc(C3=CCN(C(=O)Nc4cccc(Oc5cccc(OCc6ccccc6)c5)c4)CC3)c12 [Compound 211, N-(3-(3-(benzyloxy)phenoxy)phenyl)-4-(5-methyl-7H-pyrrolo[2,3-d]pyrimidin-4-yl)-3,6-dihydropyridine-1(2H)-carboxamide] | 3% | 5% | 6.33 | 6.99 | –
19 | Cc1c[nH]c2ncnc(C3=CCN(C(=O)Nc4cccc(Oc5cccc(O)c5)c4)CC3)c12 [Compound 213, N-(3-(3-hydroxyphenoxy)phenyl)-4-(5-methyl-7H-pyrrolo[2,3-d]pyrimidin-4-yl)-3,6-dihydropyridine-1(2H)-carboxamide] | 27% | 55% | 7.79 | 7.89 | –
20 | Cc1c[nH]c2ncnc(C3=CCN(C(=O)Nc4cccc(Oc5cccc(OC(=O)N(C)C)c5)c4)CC3)c12 [Compound 216, 3-(3-(4-(5-methyl-7H-pyrrolo[2,3-d]pyrimidin-4-yl)-1,2,3,6-tetrahydropyridine-1-carboxamido)phenoxy)phenyl dimethylcarbamate] | – | – | 7.84 | 8.31 | inhibition at 1 µM ([1]; read-out: % inhibition (ROCK2) 1 uM): 56%; inhibition at 1 µM ([3]; read-out: % inhibition (ROCK1) 1 uM): 71%
21 | CC(=O)Nc1cccc(Oc2cccc(NC(=O)N3CC=C(c4ncnc5[nH]cc(C)c45)CC3)c2)c1 [Compound 219, N-(3-(3-acetamidophenoxy)phenyl)-4-(5-methyl-7H-pyrrolo[2,3-d]pyrimidin-4-yl)-3,6-dihydropyridine-1(2H)-carboxamide] | 37% | 60% | 8.26 | 8.31 | –
22 | CNC(=O)c1cccc(Oc2cccc(NC(=O)N3CC=C(c4ncnc5[nH]cc(C)c45)CC3)c2)c1 [Compound 222, 4-(5-methyl-7H-pyrrolo[2,3-d]pyrimidin-4-yl)-N-(3-(3-(methylcarbamoyl)phenoxy)phenyl)-3,6-dihydropyridine-1(2H)-carboxamide] | 48% | 66% | 8.53 | 8.34 | –
